Data reported in US20230257374A1, “NOVEL KRAS G12C PROTEIN INHIBITOR, PREPARATION METHOD THEREFOR, AND USE THEREOF” (INNOVENT BIOLOGICS (SUZHOU) CO., LTD., priority 2019, published 2023).

Key:
[1] = tested on: H358 cell line (K-RAS G12C); experiment: cells; type: cell-based, human; conditions: for IC50: Homo sapiens, NCI-H358, 96 h, 3D culture, CellTiter-Glo 3D, read on day 4, read-out: H358 (K-RAS G12C) IC50; for Selectivity (fold number of mutant vs. wild type): PC-9 IC50 vs. H358 IC50
Experimental: a) On day 1, seed cells were placed in T75 a flask. b) On day 3, the medium was taken out and washed once with DPBS. c) Cells were trypsinized with 2 mL TrypLE™ Express enzyme at room temperature (RT) or 37° C. until cells detached. d) 5 mL of fresh medium was added to suspend the cells, and then the suspension was centrifuged at 1000 rpm and room temperature for 5 min. e) The supernatant was discarded, and the cells were resuspended in 5 mL of fresh medium and counted using Countess™ H. f) The cells were seeded back into the T75 flask for further culture or placed into an assay plate for 3D cell proliferation assay.
The cells were seeded at a density of 600 cells/well in a 384-well plate with 40 μL of medium per well and a final DMSO concentration of 0.5%. b) On day 4, a 3D CTG reagent was added to each well, followed by shaking at room temperature for 1 h. c) The signals were recorded using Envision.
a) Robustness was examined using 0.5% DMSO and data of blank control medium: H=mean (DMSO); L=mean (medium); SD (H)=STDEV (DMSO); SD (L)=STDEV (medium);
Y=peak valley value+(peak top value−peak valley value)/(1+10^((Log IC50−X)×HillSlope));
X: logarithm of compound concentration; Y: percent inhibition (% inhibition); Peak top and peak valley values: the plateau period units are the same as Y; log IC50: the same logarithmic unit as X; HillSlope: slope coefficient or Hill slope.

in vitro [2] = conditions: microsomes, pH 7.4
in vitro [3] = conditions: human, Caco-2, pH 7.4
Experimental: Drug penetration test: the Transwell culture plate was retrieved from the incubator. […] All samples were prepared in double parallel. The integrity of the cell monolayer membrane after 2 hours of incubation was assessed using leakage of fluorescein; fluorescein stock solution was diluted with HBSS (25 mM HEPES, pH 7.4) to a final concentration of 100 μM. 100 μL of fluorescein solution was added to each well of the upper Transwell plate and 300 μL of HBSS (25 mM HEPES, pH 7.4) was added to each well of the lower receiving plate; after incubation at 37° C. for 30 min, 80 μL of the solution was pipetted from the upper and lower layers of each well to a new 96-well plate.
The apparent permeability coefficients (Papp, unit: cm/s) of the compounds in Caco-2 cells were calculated from the specific concentrations at the acceptor and donor ends, and the specific calculation formula is as follows: […]
where VA represents the volume of the acceptor end solution (0.3 mL for Ap→Bl, 0.1 mL for Bl→Ap); Area represents the area of the Transwell-96 well plate (0.143 cm^2); time represents the incubation time (unit: s); [drug]acceptor represents the drug concentration (ratio of peak area to internal standard area) at the acceptor end; [drug]initial, donor represents the drug concentration at the donor end (ratio of peak area to internal standard area).
The efflux ratio was calculated as follows: […]
where Papp (B-A) represents the apparent permeability coefficient from base end to top end; Papp (A-B) represents the apparent permeability coefficient from top end to base end.

| IC50 [1] | half-life at 1 μM (in vitro [2]; ICR (CD-1), mouse) | microsomal CLint at 1 μM (in vitro [2]; ICR (CD-1), mouse) | half-life at 1 μM (in vitro [2]; human) | microsomal CLint at 1 μM (in vitro [2]; human) | Papp A→B at 2 h, 10 μM (in vitro [3]) | Papp B→A at 2 h, 10 μM (in vitro [3]) | efflux ratio at 2 h, 10 μM (in vitro [3]) | Compound | Selectivity (fold number of mutant vs. wild type) [1] |
| --- | --- | --- | --- | --- | --- | --- | --- | --- | --- |
| 0.55 nM | 20.9 min | 66.5 µL/min/mg | 29.3 min | 47.3 µL/min/mg | 0.63 ×10⁻⁶ cm/s | 5.5 ×10⁻⁶ cm/s | 8.7 | [2H]C([2H])([2H])c1cccc2cccc(N3CCc4c(nc(OC[C@@H]5CCCN5C)nc4N4CCN(C(=O)C=C)[C@@H](CC#N)C4)C3)c12 [Compound 1, 2-((S)-1-acryloyl-4-(7-(8-(methyl-d3)naphthalen-1-yl)-2-(((S)-1-methylpyrrolidin-2-yl)methoxy)-5,6,7,8-tetrahydropyrido[3,4-d]pyrimidin-4-yl)piperazin-2-yl)acetonitrile] | 8745 fold |
| 0.62 nM | 22.8 min | 60.9 µL/min/mg | 27.2 min | 51 µL/min/mg | – | – | – | [2H]C([2H])([2H])N1CCC[C@H]1COc1nc2c(c(N3CCN(C(=O)C=C)[C@@H](CC#N)C3)n1)CCN(c1cccc3cccc(C)c13)C2 [Compound 42, 2-((S)-1-acryloyl-4-(7-(8-methylnaphthalen-1-yl)-2-(((S)-1-(methyl-d3)pyrrolidin-2-yl)methoxy)-5,6,7,8-tetrahydropyrido[3,4-d]pyrimidin-4-yl)piperazin-2-yl)acetonitrile] | 3823 fold |
